Measurements published in patent US20130143297A1, “STABILIZED LIQUID TENSIDE P[…]” (Henkel AG & Co. KGaA, priority 2010, published 2013).

System: variant F49 of the protease from Bacillus lentus
Assay: Residual proteolytic activity after storage in liquid washing agent (suc-AAPF-pNA)
Format: biochemical
Conditions: 13 days at 30° C., initial activity = 100%
Description: A liquid washing agent of the following composition served as a baseline washing agent formulation (all indications in percent by weight): 0.3 to 0.5% xanthan, 0.2 to 0.4% antifoaming agent, 6 to 7% glycerol, 0.3 to 0.5% ethanol, 4 to 7% FAEOS (fatty alcohol ether sulfate), 24 to 28% nonionic surfactants, 1 to 2% sodium citrate (dihydrate), 2 to 4% soda, 14 to 16% coconut fatty acids, 0.5% HEDP (1-hydroxyethane-(1,1-diphosphonic acid)), 0 to 0.4% PVP (polyvinylpyrrolidone), 0 to 0.05% optical brightener, 0 to 0.001% dye, remainder demineralized water.
The aminophthalic acid 4-aminophthalic acid (Alfa Aesar) was incorporated into this formulation as the component stabilizing the hydrolytic enzyme, as indicated below (see Table 1, indications in this regard in wt %). Comparison formulations that contained either boric acid as an enzyme stabilizer, or no enzyme stabilizer, served as controls. The protease used was variant F49 of the protease from Bacillus lentus in accordance with WO 95/23221 (quantity used: 1 wt % active substance).
After storage, the respective residual proteolytic activity was determined by way of the release of the para-nitroaniline (pNA) chromophore from the suc-L-Ala-L-Ala-L-Pro-L-Phe-p-nitroanilide substrate (suc-AAPF-pNA). The protease cleaves the substrate and releases pNA. The release of pNA causes an increase in extinction at 410 nm, the time course of which is an indication of enzymatic activity (see Del Mar et al., 1979). Measurement occurred at a temperature of 25° C., at pH 8.6 and at a wavelength of 410 nm. The measurement time was 5 min, with a measurement interval from 20 s to 60 s. The proteolytic activity values obtained are indicated in Table 1 below, based on an initial activity of 100% when storage began.

[1] = 1.0 wt % stabilizer in baseline liquid washing agent

Structure (SMILES)	residual proteolytic activity after storage (0.1 wt % stabilizer in baseline liquid washing agent) [%]	residual proteolytic activity after storage (0.5 wt % stabilizer in baseline liquid washing agent) [%]	residual proteolytic activity after storage [1] [%]	residual proteolytic activity after storage (2.0 wt % stabilizer in baseline liquid washing agent) [%]
Nc1ccc(C(=O)O)c(C(=O)O)c1 [4-aminophthalic acid]	28.3	33.3	40.8	50.0
OB(O)O [boric acid, reference compound]	–	–	74.9	–
